# EP4644383A1 (Jiangsu Yahong Meditech Co., Ltd., priority 2022, dated 2024)
# Where two headings read alike, the source gives them in different places.
# Legend:
# [1] = target: T1, FGFR1 (Homo sapiens, UniProt P11362); assay: FGFR1 kinase activity inhibition assay (LanthaScreen TR-FRET); assay type: biochemical
# T1 construct: cytoplasmic domain [398-822 (terminal) amino acids]; purchased Carna 08-133
# Protocol: (§1) PV3552) and 10 mM EDTA were added to quench the kinase reaction, and incubated at 22°C for 60 minutes. • ⑤ The reaction was measured using a PerkinElmer EnVision multimode plate reader through TR-FRET dual wavelength detection. • 1. The RFU values were copied from the Envision program. • 2. The ratio of RFU 520nm/RFU 495nm was calculated. • 3. The value of the ratio was converted to a percentage inhibition value. % Inhibition = (max-data)/(max-min) × 100 [formula] "Min" represents the ratio of the control without enzyme, "max" represents the ratio of the DMSO control, and "data" represents the ratio of the compounds in wells with different concentrations. […] "Top" refers to the maximum response, "Bottom" refers to the minimum response, and "HillSlope" refers to the slope of the curve.
# [2] = target: T2, FGFR3 (Homo sapiens, UniProt P22607); assay: FGFR3 kinase activity inhibition assay (LanthaScreen TR-FRET); assay type: biochemical; conditions: for Selectivity (X) FGFR1/FGFR3: ratio of IC50 FGFR1/FGFR3, selectivity towards FGFR3
# T2 construct: FGFR3's cytoplasmic domain [436-806 (terminal) amino acids]; purchased Carna 08-135
# Protocol: as §1, with “curve. According to the same method as that in the FGFR1 kinase activity inhibition assay, the inhibitory activities against FGFR2, FGFR3 and FGFR4 were tested using FGFR2's cytoplasmic domain [399-821 (terminal) amino acids] (Carna: 08-134), FGFR3's cytoplasmic domain [436-806 (terminal) amino acids] (Carna: 08-135) and FGFR4's cytoplasmic domain [460-802 (terminal) amino acids] (Carna: 08-136), respectively. […]” for “curve.”
# [3] = FGFR1 kinase, TR-FRET, read-out: IC50 (nM) FGFR1
# [4] = FGFR3 kinase, TR-FRET, read-out: IC50 (nM) FGFR3
# T2 sequence (P22607 436-806): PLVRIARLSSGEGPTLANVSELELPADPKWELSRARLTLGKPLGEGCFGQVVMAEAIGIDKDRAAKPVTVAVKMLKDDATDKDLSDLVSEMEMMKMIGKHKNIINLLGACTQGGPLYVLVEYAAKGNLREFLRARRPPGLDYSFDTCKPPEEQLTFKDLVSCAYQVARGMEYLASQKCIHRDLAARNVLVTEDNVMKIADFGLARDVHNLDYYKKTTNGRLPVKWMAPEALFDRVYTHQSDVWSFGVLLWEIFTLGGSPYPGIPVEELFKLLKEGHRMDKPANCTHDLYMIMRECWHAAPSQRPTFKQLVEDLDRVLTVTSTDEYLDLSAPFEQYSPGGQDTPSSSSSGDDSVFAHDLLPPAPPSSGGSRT
# T1 sequence (P11362 398-822): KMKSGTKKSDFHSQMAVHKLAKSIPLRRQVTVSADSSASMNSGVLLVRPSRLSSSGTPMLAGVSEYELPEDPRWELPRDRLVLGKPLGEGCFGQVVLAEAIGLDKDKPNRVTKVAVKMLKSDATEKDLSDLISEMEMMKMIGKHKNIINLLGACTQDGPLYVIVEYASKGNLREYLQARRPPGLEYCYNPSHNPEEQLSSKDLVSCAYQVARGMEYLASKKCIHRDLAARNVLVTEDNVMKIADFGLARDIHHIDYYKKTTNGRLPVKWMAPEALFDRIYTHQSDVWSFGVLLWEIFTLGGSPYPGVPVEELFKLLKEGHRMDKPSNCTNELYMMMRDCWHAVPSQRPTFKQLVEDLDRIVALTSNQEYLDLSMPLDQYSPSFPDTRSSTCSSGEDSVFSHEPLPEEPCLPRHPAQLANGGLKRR
"IC50 [2, 4]",SMILES,other results
< 1 nM,"Cc1cc(C(C)Oc2ccc3[nH]nc(-c4cnn(C5CN(C(=O)C(C)(C)N)C5)c4)c3c2)c2cccnc2c1 (stereo not shown) [Example 215, 2-amino-2-methyl-1-(3-(4-(5-(1-(7-methylquinolin-5-yl)ethoxy)-1H-indazol-3-yl)-1H-pyrazol-1-yl)azetidin-1-yl)propan-1-one]","IC50 [1, 3]: 10 to 100 nM; Selectivity (X) FGFR1/FGFR3 [2]: B (B represents 20 ≤ multiple X<50)"
1 to 10 nM,"CC(Oc1ccc2[nH]nc(-c3cnn(C)c3)c2c1)c1cccc2cnccc12 (stereo not shown) [Example 104, 5-(1-((3-(1-methyl-1H-pyrazol-4-yl)-1H-indazol-5-yl)oxy)ethyl)isoq uinoline]",
10 to 100 nM,"CC(Oc1ccc2[nH]nc(-c3cnn(C)c3)c2c1)c1nccs1 (stereo not shown) [Example 91, 2-(1-((3-(1-methyl-1H-pyrazol-4-yl)-1H-indazol-5-yl)oxy)ethyl)thiazole]",
> 100 nM,"CC(Oc1ccc2[nH]nc(-c3cnn(C)c3)c2c1)c1ccn2ccnc2c1 (stereo not shown) [Example 89, 5-(1-(imidazo[1,2-a]pyridine-7-yl)ethoxy)-3-(1-methyl-1H-pyrazol-4-yl)-1H-indazole]",
> 100 nM,"Cc1ccc2ncccc2c1C(C)Sc1ccc2[nH]nc(-c3cnn(C)c3)c2c1 (stereo not shown) [Example 115, 6-methyl-5-(1-((3-(1-methyl-1H-pyrazol-4-yl)-1H-indazol-5-yl)thio)ethyl)quinoline]",
1 to 10 nM,"CC(Oc1ccc2[nH]nc(-c3cnn(C)c3)c2c1)c1cc(C2CC2)cc2ncccc12 (stereo not shown) [Example 164, 7-cyclopropyl-5-(1-((3-(1-methyl-1H-pyrazol-4-yl)-1H-indazol-5-yl)oxy)ethyl)qui noline]",
1 to 10 nM,"CC(Oc1ccc2[nH]nc(-c3cnn(C)c3)c2c1)c1cccc2ncn(C)c12 (stereo not shown) [Example 103, 5-(1-(1-methyl-1H-benzo[d]imidazol-7-yl)ethoxy)-3-(1-methyl-1-H-pyrazol-4-yl)-1H-indazole]",
10 to 100 nM,"CC(Oc1ccc2[nH]nc(-c3cnn(C)c3)c2c1)c1cccc2cccnc12 (stereo not shown) [Example 105, 8-(1-((3-(1-methyl-1H-pyrazol-4-yl)-1H-indazol-5-yl)oxy)ethyl)quin oline]",
10 to 100 nM,"CC(Oc1ccc2[nH]nc(-c3cnn(C)c3)c2c1)c1c(C(F)(F)F)ccc2ncccc12 (stereo not shown) [Example 172, 5-(1-((3-(1-methyl-1H-pyrazol-4-yl)-1H-indazol-5-yl)oxy)ethyl)-6-(trifluoromethyl)quinoline]",
> 100 nM,"CC(Oc1ccc2[nH]nc(-c3cnn(C)c3)c2c1)c1cncc2ncccc12 (stereo not shown) [Example 108, 5-(1-((3-(1-methyl-1H-pyrazol-4-yl)-1H-indazol-5-yl)oxy)ethyl)-1,7-naphthyridine]",
10 to 100 nM,"CC(Oc1ccc2[nH]nc(-c3cnn(C)c3)c2c1)c1ccnc2ncccc12 (stereo not shown) [Example 93, 4-(1-((3-(1-methyl-1H-pyrazol-4-yl)-1H-indazol-5-yl)oxy)ethyl)-1,8-naphthyridine]",

# The next lines start with the compound.
SMILES,"IC50 [2, 4]",other results
CCCn1cc(-c2n[nH]c3c(F)cc(O[C@H](C)c4c(Cl)cncc4Cl)cc23)cn1 [Example 10],,IC50 [1]: 10 to 100 nM; IC50 [2]: 1 to 10 nM; Selectivity (X) FGFR1/FGFR3 [2]: A (A represents 1 ≤ multiple X<20)
CC(=O)N1CCC(n2cc(-c3n[nH]c4c(F)cc(O[C@H](C)c5c(Cl)cncc5Cl)cc34)cn2)CC1 [Example 13],1 to 10 nM,"IC50 [1, 3]: 10 to 100 nM; Selectivity (X) FGFR1/FGFR3 [2]: A (A represents 1 ≤ multiple X<20)"
"CC(Oc1ccc2[nH]nc(-c3cnn(C4CN(C(=O)C(C)(C)O)C4)c3)c2c1)c1cc(Cl)cc2ncccc12 (stereo not shown) [Example 206, 1-(3-(4-(5-(1-(7-chloroquinolin-5-yl)ethoxy)-1H-indazol-3-yl)-1H-pyrazol-1-yl)azetidin-1-yl)-2-hydroxy-2-methylpropan-1-one]",1 to 10 nM,"IC50 [1, 3]: 10 to 100 nM; Selectivity (X) FGFR1/FGFR3 [2]: C (C represents 50 ≤ multiple X<100)"
"C[C@@H](Oc1ccc2[nH]nc(-c3cnn(CCN4CCN(C)CC4)c3)c2n1)c1c(Cl)cncc1Cl [Example 53, (R)-5-(1-(3,5-dichloropyridin-4-yl)ethoxy)-3-(1-(2-(4-methylpiperazin-1-yl)ethyl)-1H-pyrazol-4-yl)-1H-pyrazolo[4,3-b]pyridine]",< 1 nM,"IC50 [1, 3]: 1 to 10 nM; Selectivity (X) FGFR1/FGFR3 [2]: A (A represents 1 ≤ multiple X<20)"
"CC(Oc1ccc2[nH]nc(-c3cnn(CCCS(C)(=O)=O)c3)c2c1)c1cc(Cl)cc2nccnc12 (stereo not shown) [Example 220, 7-chloro-5-(1-((3-(1-(3-(methylsulfonyl)propyl)-1H-pyrazol-4-yl)-1H-indazol-5-yl)oxy)ethyl)quinox aline]",< 1 nM,"IC50 [1, 3]: 10 to 100 nM; Selectivity (X) FGFR1/FGFR3 [2]: C (C represents 50 ≤ multiple X<100)"
"C[C@@H](Oc1ccc2[nH]nc(-c3cnn(C4CCOCC4)c3)c2n1)c1c(Cl)cncc1Cl [Example 34, (R)-5-(1-(3,5-dichloropyridin-4-yl)ethoxy)-3-(1-(tetrahydro-2H-pyran-4-yl)-1H-pyrazol-4-yl)1H-pyrazolo[4,3-b]pyridine]",1 to 10 nM,"IC50 [1, 3]: 1 to 10 nM; Selectivity (X) FGFR1/FGFR3 [2]: A (A represents 1 ≤ multiple X<20)"
"CC(Oc1ccc2[nH]nc(-c3cnn(C4CCS(=N)(=O)CC4)c3)c2c1)c1cccc2nccnc12 (stereo not shown) [Example 154, 1-imino-4-(4-(5-(1-(quinoxalin-5-yl)ethoxy)-1H-indazol-3-yl)-1H-pyrazol-1-yl)hexahydro-thiopyran 1-oxide]",1 to 10 nM,
"CNCCNC(=O)c1ccc2[nH]nc(-c3nc(-c4ccccc4)c[nH]3)c2c1 [Example 82, N-(2-(methylamino)ethyl)-3-(4-phenyl-1H-imidazol-2-yl)-1H-indazole-5-carboxamide]",> 100 nM,
"CC(C)c1cc(O[C@H](C)c2c(Cl)cncc2Cl)cc2c(-c3cnn(C)c3)n[nH]c12 [Example 6, (R)-5-(1-(3,5-dichloropyridin-4-yl)ethoxy)-7-isopropyl-3-(1-methyl-1H-pyrazol-4-yl)-1H-indazole]",> 100 nM,
"C[C@@H](Oc1ccc2[nH]nc(-c3cnn4ccccc34)c2n1)c1c(Cl)cncc1Cl [Example 43, (R)-5-(1-(3,5-dichloropyridin-4-yl)ethoxy)-3-(pyrazolo[1,5-a]pyridin-3-yl)-1H-pyrazolo[4,3-b]pyridine]",> 100 nM,
"Cc1ccc2ncccc2c1C(C)Oc1cnc2[nH]nc(-c3cnn(C)c3)c2c1 (stereo not shown) [Example 117, 6-methyl-5-(1-((3-(1-methyl-1H-pyrazol-4-yl)-1H-pyrazino[3,4-b]pyridin-5-yl)oxy)ethyl)quinoline]",,IC50 [2]: 10 to 100 nM
"Cn1cc(-c2n[nH]c3ccc(C(=O)NCc4c(Cl)cncc4Cl)cc23)cn1 [Example 78, N-((3,5-dichloropyridin-4-yl)methyl)-3-(1-methyl-1H-pyrazol-4-yl)-1H-indazole-5-carboxamide]",> 100 nM,
"Cn1cc(-c2n[nH]c3ccc(C(=O)NCC4CCCNC4)cc23)cn1 (stereo not shown) [Example 69, 3-(1-methyl-1H-pyrazol-4-yl)-N-(piperidin-3-ylmethyl)-1H-indazole-5-carboxamide]",> 100 nM,
"CC(C)Cn1cc(-c2n[nH]c3ccc(O[C@H](C)c4c(Cl)cncc4Cl)nc23)cn1 [Example 51, (R)-5-(1-(3,5-dichloropyridin-4-yl)ethoxy)-3-(1-isobutyl-1H-pyrazol-4-yl)-1H-pyrazolo[4,3-b]pyridine]",> 100 nM,
"Cn1cc(-c2n[nH]c3ccc(C(=O)NCC4CNC4)cc23)cn1 [Example 68, N-(azetidin-3-ylmethyl)-3-(1-methyl-1H-pyrazol-4-yl)-1H-indazole-5-carboxamide]",> 100 nM,
